Assay results taken from ChEMBL document CHEMBL6087408, “Discovery of peptidomimetic spiropyrrolidine derivatives as novel 3CLpro inhibitors against SARS-CoV -2” (Eur J Med Chem, 2025).

Legend:
[1] = molecular target: Replicase polyprotein 1ab (Severe acute respiratory syndrome coronavirus 2, UniProt P0DTD1); experiment: Inhibition of 6His-tagged SARS-CoV-2 3CLpro using Dabcyl-KNSTLQSGLRKE-Edans as substrate preincubated for 60 mins followed by substrate addition by FRET assay
[2] = Cytotoxicity against human Huh-7 cells assessed as cell viability by Cell Titer Glo assay; type: toxicity, cell-based
[3] = AUC (0 to t) in ICR mouse at 20 mg/kg, po measured for 24 hrs by LC-MS/MS analysis; type: ADME, organism-based; settings: in vivo
[4] = Oral bioavailability in ICR mouse at 20 mg/kg measured for 24 hrs by LC-MS/MS analysis; type: ADME, organism-based; settings: in vivo
[5] = Half life in ICR mouse at 10 mg/kg, iv measured for 24 hrs by LC-MS/MS analysis; type: ADME, organism-based; settings: in vivo
[6] = Metabolic stability in mouse liver microsomes assessed as hepatic clearance at 1 uM preincubated for 5 mins followed by NADPH addition measured upto 45 mins by LC-MS/MS analysis; type: ADME, Microsome; settings: time < 50 min
[7] = Cmax in ICR mouse at 20 mg/kg, po measured for 24 hrs by LC-MS/MS analysis; type: ADME, organism-based; settings: in vivo
[8] = Metabolic stability in human liver microsomes assessed as half life at 1 uM preincubated for 5 mins followed by NADPH addition measured upto 45 mins by LC-MS/MS analysis; type: ADME, Microsome; settings: time < 50 min
[9] = AUC (0 to infinity) in ICR mouse at 20 mg/kg, po measured for 24 hrs by LC-MS/MS analysis; type: ADME, organism-based; settings: in vivo
Cathepsin B = Cathepsin B (Homo sapiens, UniProt P07858); experiment: Inhibition of CTSB (unknown origin) incubated for 2 hrs
[10] = AUC (0 to t) in ICR mouse at 10 mg/kg, iv measured for 24 hrs by LC-MS/MS analysis; type: ADME, organism-based; settings: in vivo
[11] = AUC (0 to infinity) in ICR mouse at 10 mg/kg, iv measured for 24 hrs by LC-MS/MS analysis; type: ADME, organism-based; settings: in vivo
[12] = Half life in ICR mouse at 20 mg/kg, po measured for 24 hrs by LC-MS/MS analysis; type: ADME, organism-based; settings: in vivo
SARS-CoV-2 = experiment: Antiviral activity against SARS-CoV-2 infected in human Huh-7 cells transfected with viral replicon incubated for 1 day; type: functional, organism-based; settings: Severe acute respiratory syndrome coronavirus 2, Huh-7, 24 h; for EC90: time 1 day
Procathepsin L = Procathepsin L (Homo sapiens, UniProt P07711); experiment: Inhibition of CTSL (unknown origin) incubated for 2 hrs
Chain of Procathepsin L (P07711 whole entry): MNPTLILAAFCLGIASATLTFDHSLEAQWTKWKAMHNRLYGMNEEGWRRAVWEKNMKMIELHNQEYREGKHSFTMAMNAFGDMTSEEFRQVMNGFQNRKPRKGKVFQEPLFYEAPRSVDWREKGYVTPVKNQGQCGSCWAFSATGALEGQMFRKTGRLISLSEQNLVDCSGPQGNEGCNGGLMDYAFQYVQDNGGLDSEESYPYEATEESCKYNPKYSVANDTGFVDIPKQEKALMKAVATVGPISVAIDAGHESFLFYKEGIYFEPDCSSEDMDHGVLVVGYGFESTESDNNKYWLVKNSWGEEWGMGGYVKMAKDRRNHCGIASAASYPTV

[13] = Metabolic stability in mouse liver microsomes assessed as half life at 1 uM preincubated for 5 mins followed by NADPH addition measured upto 45 mins by LC-MS/MS analysis; type: ADME, Microsome; settings: time < 50 min
[14] = Metabolic stability in human liver microsomes assessed as hepatic clearance at 1 uM preincubated for 5 mins followed by NADPH addition measured upto 45 mins by LC-MS/MS analysis; type: ADME, Microsome; settings: time < 50 min

Which IC50 [1] does the source give for `CC1(C)[C@@H]2[C@@H](C(=O)N3C[C@]4(C[C@H]3C#N)C(=O)Nc3ccccc34)N(C(=O)[C@@H](NC(=O)C(F)(F)F)C3CC3)C[C@@H]21` here?
The IC50 was 886 nM.

For `CN(C(=O)[C@@H](NC(=O)C(F)(F)F)C1CC1)[C@@H](Cc1ccc(F)cc1)C(=O)N1C[C@]2(C[C@H]1C#N)C(=O)Nc1ccccc12`, which CC50 [2] is on record?
The CC50 was greater than 5000 nM.

What about the AUC(0-t) at 24 h [3] of the same compound?
The AUC(0-t) at 24 h was 1110 ng·h/mL.

What about the bioavailability [4] of the same compound?
The bioavailability was 16.2%.

And the half-life [5]?
The half-life was 1.99 h.

What about the IC50 [1] of the same compound?
The IC50 was 21 nM.

And the CLhep predicted at 1 µM [6]?
The CLhep predicted at 1 µM was 40.8 mL/min/kg.

What about the Cmax [7] of the same compound?
The Cmax was 1360 ng/mL.

And the half-life at 1 µM [8]?
Its half-life at 1 µM is 0.207 h.

What about the AUC(0-inf) [9] of the same compound?
Its AUC(0-inf) is 1110 ng·h/mL.

What about the IC50 (Cathepsin B) of the same compound?
Its IC50 is 20700 nM.

And the AUC(0-t) at 24 h [10]?
Its AUC(0-t) at 24 h is 3420 ng·h/mL.

What about the AUC(0-inf) [11] of the same compound?
The AUC(0-inf) was 3420 ng·h/mL.

And the half-life [12]?
The half-life was 2.58 h.

What about the EC50 (SARS-CoV-2) of the same compound?
The EC50 was 5 nM.

What about the EC90 (SARS-CoV-2) of the same compound?
The EC90 was 39 nM.

And the IC50 (Procathepsin L)?
The IC50 was 20200 nM.

And the half-life at 1 µM [13]?
Its half-life at 1 µM is 1.25 h.

And the CLhep predicted at 1 µM [14]?
The CLhep predicted at 1 µM was 18.3 mL/min/kg.

Which IC50 [1] does the source give for `CN(C(=O)[C@@H](NC(=O)C(C)(C)F)C1CC1)[C@@H](CSCc1ccccc1)C(=O)N1C[C@]2(C[C@H]1C#N)C(=O)Nc1ccccc12` here?
The IC50 was 43 nM.

What about the CLhep predicted at 1 µM [6] of the same compound?
The CLhep predicted at 1 µM was 85.1 mL/min/kg.

And the half-life at 1 µM [13]?
The half-life at 1 µM was 0.06 h.

Which results are given for `CC(C)(C)[C@H](NC(=O)C(F)(F)F)C(=O)N1C[C@H]2[C@@H]([C@H]1C(=O)N[C@H](C#N)C[C@@H]1CCNC1=O)C2(C)C`?
CC50 [2]: > 5000 nM; half-life at 1 µM [8]: 0.91 h; EC90 (SARS-CoV-2): 186 nM; half-life at 1 µM [13]: 1.17 h; CLhep predicted at 1 µM [14]: 12.7 mL/min/kg

For `CN(C(=O)[C@@H](NC(=O)OC(C)(C)C)C1CC1)[C@H](CSCc1ccccc1)C(=O)N1C[C@]2(C[C@H]1C#N)C(=O)Nc1ccccc12`, which IC50 [1] is on record?
Its IC50 is 674 nM.

What does the source list for `CC(C)C[C@H](NC(=O)[C@H]1C[C@@H]1C(=O)O)C(=O)NCCCCNC(=N)N`?
IC50 (Cathepsin B): 41.4 nM; IC50 (Procathepsin L): 56.2 nM

For `CN(C(=O)[C@@H](NC(=O)OC(C)(C)C)C1CC1)[C@@H](CSCc1ccccc1)C(=O)N1C[C@]2(C[C@H]1C#N)C(=O)Nc1ccccc12`, which IC50 [1] is on record?
The IC50 was 38 nM.

With `CN(C(=O)[C@@H](NC(=O)C(C)(C)F)C1CC1)[C@@H](COCc1ccccc1)C(=O)N1C[C@]2(C[C@H]1C#N)C(=O)Nc1ccccc12` as the compound, how does the IC50 [1] read?
Its IC50 is 53 nM.

And the CLhep predicted at 1 µM [6]?
Its CLhep predicted at 1 µM is 83.6 mL/min/kg.

What about the half-life at 1 µM [13] of the same compound?
Its half-life at 1 µM is 0.0783 h.

Which IC50 [1] does the source give for `CC(C)(C)OC(=O)N[C@H](C(=O)N[C@@H](CSCc1ccccc1)C(=O)N1C[C@]2(C[C@H]1C#N)C(=O)Nc1ccccc12)C1CC1` here?
The IC50 was 47 nM.

For `CN(C(=O)[C@@H](NC(=O)C(F)(F)F)C1CC1)[C@@H](CSCc1ccccc1)C(=O)N1C[C@]2(C[C@H]1C#N)C(=O)Nc1ccccc12`, which IC50 [1] is on record?
The IC50 was 40 nM.

And the CLhep predicted at 1 µM [6]?
Its CLhep predicted at 1 µM is 84.9 mL/min/kg.

And the half-life at 1 µM [13]?
The half-life at 1 µM was 0.0617 h.

Which IC50 [1] does the source give for `N#C[C@@H]1C[C@@]2(CN1C(=O)[C@H](CSCc1ccccc1)NC(=O)[C@@H](NC(=O)C(F)(F)F)C1CC1)C(=O)Nc1ccccc12` here?
Its IC50 is 298 nM.

With `CC(C)(C)[C@H](NC(=O)C(F)(F)F)C(=O)N1C[C@H]2[C@@H]([C@H]1C(=O)N1C[C@]3(CC1C#N)C(=O)Nc1ccccc13)C2(C)C` (stereo not given in full) as the compound, how does the IC50 [1] read?
Its IC50 is 248 nM.

For `CC(C)(F)C(=O)N[C@H](C(=O)N[C@@H](COCc1ccccc1)C(=O)N1C[C@]2(C[C@H]1C#N)C(=O)Nc1ccccc12)C1CC1`, which IC50 [1] is on record?
The IC50 was 80 nM.

With `CN(C(=O)[C@@H](NC(=O)C(F)(F)F)C1CC1)[C@@H](CS(=O)(=O)Cc1ccccc1)C(=O)N1C[C@]2(C[C@H]1C#N)C(=O)Nc1ccccc12` as the compound, how does the IC50 [1] read?
Its IC50 is 94 nM.

Which IC50 [1] does the source give for `N#C[C@@H]1C[C@@]2(CN1C(=O)[C@H](CS(=O)(=O)Cc1ccccc1)NC(=O)[C@@H](NC(=O)C(F)(F)F)C1CC1)C(=O)Nc1ccccc12` here?
The IC50 was 1300 nM.

Which results are given for `N#C[C@@H]1C[C@@]2(CN1C(=O)[C@@H](CSCc1ccc(F)cc1)NC(=O)[C@@H](NC(=O)C(F)(F)F)C1CC1)C(=O)Nc1ccccc12`?
CC50 [2]: > 5000 nM; AUC(0-t) at 24 h [3]: 970 ng·h/mL; bioavailability [4]: 22.9%; half-life [5]: 0.47 h; IC50 [1]: 25 nM; CLhep predicted at 1 µM [6]: 36.8 mL/min/kg; Cmax [7]: 1530 ng/mL; half-life at 1 µM [8]: 1.93 h; AUC(0-inf) [9]: 972 ng·h/mL; AUC(0-t) at 24 h [10]: 2120 ng·h/mL; AUC(0-inf) [11]: 2130 ng·h/mL; half-life [12]: 1.05 h; EC50 (SARS-CoV-2): 31 nM; EC90 (SARS-CoV-2): 286 nM; half-life at 1 µM [13]: 1.5 h; CLhep predicted at 1 µM [14]: 8.8 mL/min/kg

With `CC(C)(F)C(=O)N[C@H](C(=O)N[C@@H](CSCc1ccccc1)C(=O)N1C[C@]2(C[C@H]1C#N)C(=O)Nc1ccccc12)C1CC1` as the compound, how does the IC50 [1] read?
The IC50 was 97 nM.
